Tests used:
CKD mice = assay: EVs isolated from mouse aortas: CAV1 immunoblot and TNAP activity; format: in vivo; conditions: CKD mice treated vs CKD
Experimental: Immediately after scanning, the tissue was incubated in a digestive solution of sucrose (0.25 M, Sigma, S7903), NaCl (0.12 M, Fisher Chemical, BP358), KCl (0.01 M, Fisher Chemical, P217), Tris hydrochloride (0.02 M, Fisher Chemical, BP153), and collagenase (600 U/mL, Worthington Biochemical, LS004174) for 2 hours at 37° C. The solution was then centrifuged at 1,000×g for 15 min to remove cell debris and at 33,000×g for 30 min to remove microvesicles. Finally, the supernatants were ultracentrifuged (Beckman Coulter, Optima MAX-TL) at 100,000×g for 1 hour to isolate the EVs of interest. The pellet was suspended in RIPA lysis and extraction buffer (G Biosciences, 786-489) supplemented with pierce protease inhibitor (Thermo Scientific, A32963). To yield sufficient protein concentration for analysis, EVs isolated from 2 to 3 aortas were pooled.
For EV TNAP activity measurement, after ultracentrifugation at 100,000×g for 1 hour, the pellets were re-suspended in 120 μL buffer assay. […]
To quantify the total protein, the membranes were stained using 2% w/v Ponceau stain (Alfa Aesar, AAJ6074409) for 20 min, followed by one wash with 5% acetic acid and milliQ water for 5 min. After imaging, the intensity of each lane was measured in ImageJ for total protein normalization. […] The protein bands were visualized with Odyssey CLx scanner (Li-Cor), and quantified using Image Studio Lite software (Li-Cor).

[1] = system: Primary human coronary artery vascular smooth muscle cells; assay: VSMC extracellular matrix collagen (Sircol soluble collagen assay); format: cell-based; conditions: VSMCs, OS media, 2.5 μM, 28 days; p=0.10
Experimental: After 28 days of treatment, soluble collagen was extracted from the cultures using acetic acid (0.5 M) through overnight incubation at 4° C. A colorimetric assay, Sircol soluble collagen assay (Biocolor, S1000), measured the total soluble extracellular matrix (ECM) collagen in each group. Samples were prepared and assessed according to the manufacturer's protocol. Results were then normalized to the total protein measured using BCA assay.

[2] = system: Primary human coronary artery vascular smooth muscle cells; assay: VSMC intracellular and cytosolic CAV1, EGFR, TNAP (immunoblot, activity assay, confocal); format: cell-based; conditions: OS + 2.5 μM, 14 days
[3] = system: Primary human coronary artery vascular smooth muscle cells; assay: EVs isolated from VSMC cultures: protein immunoblot and TNAP activity; format: cell-based
Experimental: To assess the role of EGFR inhibition, tyrphostin AG1478 (Millipore Sigma, T4182) was dissolved in vehicle (DMSO:Methanol, 1:1) and added to OS media to a final concentration of 2.5 μM. An equal volume of vehicle was added to the control and OS groups. It shown that 28 days in OS culture media led to robust calcification by VSMCs; therefore, all cultures (n=3, independent donors, male and female) were treated for 28 days and media were replaced every three days. On days 6, 13, 20, and 27 the media were replaced by an extracellular-vesicle-free (EV-free) media (ultracentrifuged for 15 hours at 100,000×g at 4° C. to remove background EVs common in the serum). After 24 hours, conditioned media were collected on days 7, 14, 21, and 28. Collected media were centrifuged at 1,000×g for 5 min to remove cell debris. EV isolation was performed using ultracentrifugation (Beckman Coulter, Optima MAX-TL) at 100,000×g for 1 hour.
For EV TNAP activity measurement, after ultracentrifugation at 100,000×g for 1 hour, the pellets were re-suspended in 120 μL buffer assay. The assessment was performed using the same assay protocol described for intracellular TNAP activity and the results were normalized to the total protein for each sample. For mice serum TNAP activity, the samples were diluted 1:20 and assessment was performed according to the manufacturer's protocol.
VSMCs, osteoblasts, isolated EVs (either from cells or mouse aortas), and matrix vesicles (from osteoblasts) were lysed in RIPA lysis and extraction buffer supplemented with protease inhibitor. After adding Laemmli SDS-sample buffer (1:4 v/v, Boston BioProducts, BP-110R) to each lysate, the samples were denatured at 100° C. for 10 min, loaded into 7.5-12% 1-mm SDS-PAGE gel (15 to 20 μg protein per lane), and run at 170 V. The proteins were then transferred to Trans-Blot turbo nitrocellulose membranes (BIO-RAD, 1704158) at 25 V for 7 min.
To quantify the total protein, the membranes were stained using 2% w/v Ponceau stain (Alfa Aesar, AAJ6074409) for 20 min, followed by one wash with 5% acetic acid and milliQ water for 5 min. After imaging, the intensity of each lane was measured in ImageJ for total protein normalization. Membranes were blocked with 5% w/v bovine serum albumin (HyClone, SH30574.01) in TBS-Tween (1×) for 1 hour. The membranes were incubated with primary antibodies of interest, including CAV1 (1:200, Abcam, ab2910), TNAP (1:200, Invitrogen, 702454), EGFR ([…], EMD Millipore, 06-874), CD63 (1:200, Abeam, ab231975), GAPDH (1:100, Abcam, ab181602), and Annexin V (1:200, proteintech, 11060-1-AP) overnight at 4° C. After three washes with TBS-Tween (1×), the membranes were incubated with secondary antibody (1:1000, Li-Cor) for 1 hour, followed by three washes with TBS-Tween (1×). The protein bands were visualized with Odyssey CLx scanner (Li-Cor), and quantified using Image Studio Lite software (Li-Cor).

Osteoblasts (hFOB 1.19) = assay: In vitro calcification of osteoblasts, Alizarin Red S staining; format: cell-based, human; conditions: OS + 2.5 μM vs OS, 21 days; p=0.86
Experimental: Osteoblasts (from human fetus, hFOB 1.19, ATCC, CRL-11372) were cultured and grown in DMEM containing 10% v/v bovine calf serum and 1% v/v penicillin-streptomycin. Osteoblasts (passage 4-6) were harvested using 0.25% trypsin-EDTA solution (Caisson Labs, TRL01), seeded with a density of 5,200 cell.cm^−2, and incubated for 24 hours at 37° C. and 5% CO2 with controlled humidity. The cells were treated in three groups of control, OS, and OS supplemented with tyrphostin AG1478 (2.5 μM) for 21 days and media changed every three days. […] Similar to the VSMC experiments, EV-free media were added to the cultures on days 6, 13, and 20, and collected 24 hours later on days 7, 14, and 21. Collected media were centrifuged at 1,000×g for 5 min to remove cell debris. EVs were isolated using the ultracentrifugation at 100,000×g for 1 hour.
At the end of experiments (28 and 21 days of treatment on VSMCs and osteoblasts, respectively), media were removed, and the cells were fixed using Formalin (10%, Fisher Chemical, SF100). To visualize in vitro calcification, Alizarin Red S stain (ARS, Ricca, 500-32) was added to the wells and incubated for 30 min at room temperature. […]
To quantify the in vitro calcification, ARS stain was extracted using acetic acid (1.67 M, Fisher Chemical, A38S) on a shaker. […] Sample absorbance of 405 nm was measured using a multi-mode reader (BioTek, Synergy HTX).

SMILES: COc1cc2ncnc(Nc3cccc(Cl)c3)c2cc1OC [AG1478, tyrphostin AG1478]
- CAV1 protein on EVs isolated from aortas (CKD mice; p<0.0001): significantly lower
- TNAP activity of EVs isolated from aortas (CKD mice; p=0.003): significantly lower
- ECM collagen accumulation [1]: did not affect
- intracellular TNAP activity in VSMCs ([2]; compared to control): elevated
- cytosolic TNAP in VSMCs ([2]; compared to control (p=0.003) and OS (p=0.005)): elevated
- cytosolic CAV1 in VSMCs ([2]; compared to control (p=0.02) and OS (p=0.04)): elevated
- total level of intracellular CAV1 in VSMCs ([2]; compared to control group): significantly increased
- intracellular EGFR protein in VSMCs ([2]; p=0.84): prevented the OS-induced increase
- level of CD63 on EVs from VSMCs ([3]; 28 days of culture, across in vitro groups, p=0.9): preserved
- level of Annexin V on EVs from VSMCs ([3]; OS + 2.5 μM, day 28): reduced levels
- level of EGFR on EVs from VSMCs ([3]; OS + 2.5 μM, day 28): reduced levels
- EV TNAP activity (VSMC cultures) ([3]; OS + 2.5 μM, days 14, 21, 28): reduced
- release of CAV1-positive EVs by VSMCs ([3]; OS + 2.5 μM, days 14, 21, 28): reduced
- CD63 protein within EVs from vascular SMCs ([3]; pro-calcific media + 2.5 μM, 14 days, vs control and pro-calcific media): no differences
- quantification of the in vitro calcification of osteoblasts (Alizarin red) (Osteoblasts (hFOB 1.19)): no significant difference

From patent publication US11612601B1, “Targeting epidermal growth factor to treat vascular calcification” (THE FLORIDA INTERNATIONAL UNIVERSITY BOARD OF TRUSTEES, priority 2022, dated 2023)
